Laboratory results reported in paper PMC10418701, “Pharmacological Screening of Kv7.1 and Kv7.1/KCNE1 Activators as Potential Antiarrhythmic Drugs in the Zebrafish Heart” (International Journal of Molecular Sciences, 2023).

Legend:
[1] = target: T1, zebrafish Kv7.1 (KCNQ1) (Danio rerio, UniProt B0R0K2); experiment: cell-based; type: cell-based
T1 construct: gene kcnq1.1
T1 sequence (B0R0K2 1-655): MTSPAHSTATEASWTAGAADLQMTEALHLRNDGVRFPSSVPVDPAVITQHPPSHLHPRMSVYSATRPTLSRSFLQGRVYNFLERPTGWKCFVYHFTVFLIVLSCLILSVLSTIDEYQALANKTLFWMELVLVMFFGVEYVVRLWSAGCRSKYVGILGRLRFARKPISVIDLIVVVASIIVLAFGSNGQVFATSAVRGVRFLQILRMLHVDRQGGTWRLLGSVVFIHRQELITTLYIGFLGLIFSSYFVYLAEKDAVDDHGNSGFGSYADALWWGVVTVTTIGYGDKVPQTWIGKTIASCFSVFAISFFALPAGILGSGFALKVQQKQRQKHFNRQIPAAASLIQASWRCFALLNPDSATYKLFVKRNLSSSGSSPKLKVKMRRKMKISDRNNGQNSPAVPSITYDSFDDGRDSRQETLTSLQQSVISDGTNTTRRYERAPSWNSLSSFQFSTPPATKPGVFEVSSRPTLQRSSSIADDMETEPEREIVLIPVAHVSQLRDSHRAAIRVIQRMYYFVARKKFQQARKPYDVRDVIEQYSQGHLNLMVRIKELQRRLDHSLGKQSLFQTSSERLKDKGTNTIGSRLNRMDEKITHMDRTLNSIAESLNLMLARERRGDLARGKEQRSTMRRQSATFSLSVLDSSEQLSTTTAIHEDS

[2] = target: T1, zebrafish Kv7.1 (KCNQ1); experiment: two-electrode voltage clamp, zebrafish Kv7.[…] expressed in Xenopus laevis oocytes; type: cell-based

COc1ccc(-c2csc(NC(=O)[C@H]3CCCCN3S(=O)(=O)c3ccc(C)cc3)n2)cc1 [ML-277]
fold induction at 1 µM ([1]; read-out: two-electrode voltage clamp, zebrafish Kv7.1 expressed in Xenopus laevis oocytes): > 8

CCS(=O)(=O)N(C)[C@H]1c2cc(C#N)ccc2OC(C)(C)[C@@H]1O (racemic) [chromanol 293B]
inhibition at 10 µM [2]: 76%

CC/C=C\C/C=C\C/C=C\C/C=C\C/C=C\C/C=C\CCC(=O)NCC(=O)O [DHA-Gly]
two-electrode voltage clamp, zebrafish Kv7.1 expressed in Xenopus laevis oocytes [1]: 12.2 mV left shift of V0.5 at 20 µM
